Data on one compound can be found in patent publication US7799794B2, “Treatment for cardiovascular disease” (Merck Sharp & Dohme Corp., priority 2000, dated 2010).

Assay type in all cases: in vivo, rat
Assay [1] concerns Sprague-Dawley rats. Nature of the assay: Oxonic acid on low sodium diet with or without allopurinol: blood pressure, uric acid (Example 2). As to conditions: allopurinol from the initiation of the oxonic acid diet, low salt. The method, then:
All studies utilized adult male Sprague-Dawley rats (Simonsen Laboratories, Gilroy Calif.)(200-250 g).
(§1) Rats were placed on a low sodium diet (NaCl, 0.125%) with or without 2% oxonic acid for 7 weeks. A third group were administered allopurinol in the drinking water (150 mg/L) with weekly adjustments of the dose depending on the uric acid level.
Am J Physiol 268:F1164-76, 1995].
(§2) Am J Clin Pathol 1957; 28:152.]. Serum blood urea nitrogen was measured by a standard kit (Sigma, St Louis, Mo.).

Assay [2] has as its system Sprague-Dawley rats. Nature of the assay: Renal findings at 7 weeks: immunohistochemistry and BUN (Example 2). As to conditions: low NaCl diet. As to the method:
as §1, §2
(§3) Renal biopsies were fixed in Methyl-Carnoy's, 10% formalin or 100% ethanol and embedded in paraffin. The presence of uric acid crystals was evaluated by staining 4-μm ethanol-fixed sections with de Galantha and modified Von Kossa stains. Kidney tissue from rats with acute uric acid nephropathy, induced with oxonic acid and uric acid administration was used as a positive control [Stavric, B., Johnson, W. J., and Grice, H. C., Uric acid nephropathy: An experimental model, Proc. Soc. Exp. Biol. Med. 130: 512-16 (1969).]. Light microscopy was performed in 4-μm sections of Methyl-Carnoy's fixed tissue stained with periodic acid Schiff (PAS) reagent or with hematoxylin and eosin.
(§4) Methyl-Carnoy's fixed tissue sections were analyzed by indirect immunoperoxidase [Lombardi, D., Gordon , K. L., Polinsky, P., Suga, S., Schwartz, S. M., and Johnson, R. J. Salt sensitive hypertension develops after transient exposure to angiotensin II. Hypertension 33:1013-1019, 1999] staining with the following primary antibodies: OP199, a goat polyclonal antibody against osteopontin (OPN)(gift of C. Giachelli, Univ of Wash., Seattle); ED-1, a monoclonal antibody to rat monocytes and macrophages (Serotec); goat antihuman type III collagen (Southern Biotechnology Associates Inc, Birminghan Ala.); and anti-renin, a mouse antibody to human renin (Sanofi Recherche, Montpellier, France). Sections were incubated with a secondary antibody followed by horseradish peroxidase-conjugated avidin D (Vector Laboratories, Burlingame, Calif.), diaminobenzidine (Sigma) with or without nickel chloride as a chromogen, and counsterstained with methyl green.
(§5) NOS1 was detected on formalin fixed tissue sections with a rabbit anti-rat neuronal nitric oxide synthase (Transduction Laboratories, Lexington, Ky.), followed by a biotinylated secondary antibody, diaminobenzidine with nickel chloride and counterstained with nuclear fast red.
(§6) All quantification was performed blinded. The tubular expression of osteopontin (OPN), which is a sensitive marker of tubulointerstitial injury, was calculated as the percent of renal cortex occupied by OPN-positive tubules [Lombardi, D., Gordon, K. L., Polinsky, P., Suga, S., Schwartz, S. M., and Johnson, R. J. Salt sensitive hypertension develops after transient exposure to angiotensin II. Hypertension 33:1013-1019, 1999]. Utilizing computer-assisted image analysis software (Optimas V6.2, Media Cybernetics, Silver Springs, Md.) and digitized images, the percent of area occupied by OPN positive tubules per 4 mm^2 field at a magnification of 50× was measured and the mean percent area calculated for each biopsy. The interstitial deposition of collagen type III was calculated as the % of renal cortex occupied by collagen III, noted by immunostaining, by computer image analysis. The mean number of interstitial macrophages (ED-1+cells) in each biopsy was calculated in a blinded manner by counting the total number of positive interstitial cortical cells in 20 sequentially selected 0.25 mm^2 grids at 200× magnification. Renin expression was quantified by the number of glomeruli with positive staining for juxtaglomerular renin using a minimum of 100 glomeruli in each biopsy as previously described [Eng, E., et al., Renal proliferation and phenotypic changes in rats with two-kidney, one-clip Goldblatt hypertension. Am J Hypertens 7:177-185 (1994)]; this has been shown previously to correlate with intrarenal renin content[Eng, E., et al., Renal proliferation and phenotypic changes in rats with two-kidney, one-clip Goldblatt hypertension. Am J Hypertens 7:177-185 (1994)]. […]

Assay [3] has as its system Sprague-Dawley rats. Nature of the assay: Allopurinol intervention or oxonic acid withdrawal in hyperuricemic rats: blood pressure (Example 3). As to conditions: allopurinol added at 7 weeks, OA/LSD continued.
Excerpt: (§7) Rats were placed on the low sodium diet with oxonic acid for 7 weeks, and then were matched based on uric acid level and blood pressure in various groups to either receive allopurinol, have the oxonic acid withdrawn from the diet, or continue the oxonic acid/low salt diet. A control group of six rats were placed on the lowsodium diet alone for 11 weeks. All of these rats were sacrificed at week 11.
Am J Physiol 268:F1 164-76, 1995].
as §2

The subject of assay [4] is Sprague-Dawley rats. Kind of assay: Renal findings at 11 weeks: immunohistochemistry and BUN (Example 3). As to conditions: low NaCl diet, allopurinol added at 7 weeks. The method, then:
as §7, §2, §3, §4, §5
as §6, with “hypertension.” for “hypertension. Am J Hypertens 7:177-185 (1994)]; this has been shown previously to correlate with intrarenal renin content[Eng, E., et al., Renal proliferation and phenotypic changes in rats with two-kidney, one-clip Goldblatt hypertension. Am J Hypertens 7:177-185 (1994)].”

Molecules are shown by their SMILES.

Consider `Oc1ncnc2[nH]ncc12` [Allopurinol, allopurinol], for which the “development of hyperuricemia and hypertension” value in the assay with Sprague-Dawley rats [1] is “prevented”. Besides, the Renin is 44.1 ± 1.6 % positive JGA in the assay with Sprague-Dawley rats [2] (control 39.6 ± 2.0) and 44.2 ± 1.3 % positive JGA in the assay on Sprague-Dawley rats [4] (control 41.0 ± 1.9). Also, the NOS-1 is on record as 97.4 ± 5.6 positive cells/100 glomeruli with Sprague-Dawley rats [2] (control 147.2 ± 12.4) and 98.6 ± 5.1 positive cells/100 glomeruli with Sprague-Dawley rats [4] (control 104.4 ± 11.5). For the same compound, the OPN in the assay on Sprague-Dawley rats [2] (mean±SE, control 0.9 ± 0.06) is 1.3 ± 0.15 % increase; with Sprague-Dawley rats [4] (control 0.7 ± 0.08), 0.97 ± 0.03 % increase. The “Type III collagen” value with Sprague-Dawley rats [2] (mean±SE, control 5.4 ± 0.3) is given as 6.2 ± 0.6%; in the assay with Sprague-Dawley rats [4] (control 7.2 ± 0.6) it was 9.6 ± 0.3 %. Further, the BUN was 15.2 ± 2.3 mg/dL in the assay with Sprague-Dawley rats [2] (mean±SE, control 14.4 ± 1.2) and 17.7 ± 0.5 mg/dL in the assay with Sprague-Dawley rats [4] (control 16.6 ± 0.9). For the same compound, the “ED-1 (macrophages)” value is reported as 20.5 ± 0.6 cells/mm2 in the assay on Sprague-Dawley rats [2] (mean±SE, control 18.3 ± 1.3) and 25.2 ± 2.6 cells/mm2 with Sprague-Dawley rats [4] (control 27.8 ± 1.4). Besides, the “blood pressure and serum uric acid in hypertensive, hyperuricemic rats” value in the assay on Sprague-Dawley rats [3] is “reduction in the blood pressure in association with a fall in serum uric acid values”.
